Experimental data published in patent US9862754B2, “Peptide analogs for treating diseases and disorders” (KeyBioscience AG, priority 2011, dated 2018).

Legend:
Assay type in all cases: in vivo, rat
CTX-I = experiment: Example 6: serum CTX-I (RatLaps ELISA), bone resorption in DIO rats; conditions: 1 mg/kg p.o. with 150 mg/kg 5-CNAC, 2 hours after treatment, vs sCT
Method: (§1) The effect of sCT/calcitonin mimetic on bone and cartilage loss was studied in DIO rats. The animals were dosed as described in Table 6 below, and 2 hours after treatment blood sampling was done by heated tail venous puncture.
(§2) Serum CTX-I levels, as an indication of bone resorption, were measured using the RatLaps™ ELISA, and serum CTX-II levels, as an indication of cartilage degradation, were measured using the Serum PC Cartilaps™ ELISA.

CTX-II = experiment: Example 6: serum CTX-II (Serum PC Cartilaps ELISA), cartilage degradation in DIO rats; conditions: 1 mg/kg p.o. with 150 mg/kg 5-CNAC, 2 hours after treatment, vs sCT
Method: as §1, §2

[1] = Example 7: insulin tolerance test in Zucker Diabetic Fatty rats; conditions: ZDF rats; metformin 400 mg/kg/day oral, UGP302 5 μg/kg/day s.c.
Method: (§3) To assess the potential of UGP302 (SEQ ID NO: 15) in combination with metformin, Zucker Diabetic Fatty rats were used. At the age of 6 weeks 40 rats were randomized into four groups according to HbA1c, FPG and BW. The groups were: Control (Vehicle), Metformin 400 mg/kg/day, UGP302 5 μg/kg/day and the combination of the two molecules in the stated respective amounts. The treatments were given once daily, and metformin was dosed orally, while UGP302 was given subcutaneously, and the animals were treated for 8 weeks. Fasting blood glucose (FPG) and non-fasted blood glucose (PPG) were monitored biweekly, while HbA1c was measured at termination.
To further assess the effect of both single doses of each molecule and the combination of these at those same doses, the rats underwent an oral glucose tolerance test (OGTT, FIGS. 23A-23B) and an insulin tolerance test (ITT, FIGS. 24A-24B).

[2] = Example 3: OGTT after 3 days of oral treatment in DIO rats; conditions: doses of 0.5, 1 and 2 mg/kg p.o.
Method: Drug administration were given by per oral (p.o.) gavage b.i.d. during the study period and as single dose in the morning prior to start of OGTT.
Animals were given 2 g/kg single dose dissolved in milliQ H20.
Following the initial (1st) OGTT, animals were randomized into treatment groups based on FBG and BW. Animals were pre-treated 3 days (b.i.d.) prior to 2nd OGTT. The study was performed in an x-over design with each animal being its own control.
OGTT Following Overnight Fasting (16 h):
Blood sampling and glycemia were measured by heated tail venous puncture. Whole blood glucose levels were determined with an ACCU-CHEK® Avia blood glucose meter (Roche Diagnostics, Rotkreuz, Switzerland). Blood (approx 300 μl) is collected in 1 ml MiniCollect K3EDTA plasma-tube (Greiner-Bio-One GmbH, Frickenhausen, Germany), inverted, and stored on ice. Tubes are centrifuged 3000×g (5000 rpm in table centrifuge) for 10 min at 4° C. and plasma obtained. Plasma samples are stored at −20° C. until analysis. A total of ˜2.5 ml blood is obtained during OGTT (˜0.3% of body weight).
Statistical analysis was performed by one-way ANOVA followed by the Dunnett's post hoc test for multiple comparison. Student's t-test was performed to compare two paired group. All analysis was performed using GRAPHPAD PRISM software (GraphPad Prism, San Diego, Calif. U.S.A). Incremental area under curve (iAUC) during OGTT was calculated by the trapezoidal method. A value of P<0.05 was considered to be significant. All data are presented as mean±standard error of the mean (SEM).
FIG. 10A, FIG. 10B, FIG. 10C, FIG. 10D, FIG. 10E, and FIG. 10F show the effect of oral sCT versus oral UGPs on glucose tolerance during OGTT in DIO rats. Three different doses of oral sCT/UGP284/UGP298/UGP302 containing 0.5, 1 and 2 mg/kg compound were applied by gavage twice daily to 4 groups of rats for 3 days prior to OGTT. The experimental set-up was a cross-over design. * P<0.05, ** P<0.01, *** P<0.001 vs oral vehicle. Results are presented as means±SEM.

[3] = Example 7: combination with metformin in Zucker Diabetic Fatty rats, FPG, PPG, HbA1c; conditions: ZDF rats; 8 weeks once daily; metformin 400 mg/kg/day oral, UGP302 5 μg/kg/day s.c.
Method: as §3

Substance: Ac-CSNLSTCVLGKLSQELHKLQTYPRTDVGANAP-NH2 (Ac-CSNLSTCVLGKLSQELHKLQTYPRTDVGANAP-NH2; ends and bridges not checked) [UGP302, calcitonin mimetic]
- bone resorption (serum CTX-I levels) (CTX-I): stronger effect in reduction
- cartilage degradation (serum CTX-II levels) (CTX-II): stronger effect in reduction
- insulin tolerance (ITT) [1]: individually improve
- glucose tolerance during OGTT [2]: improvement in glucose tolerance
- fasting blood glucose (FPG) [3]: pronounced reduction throughout the study
- non-fasted blood glucose (PPG) [3]: pronounced reduction throughout the study
